Reference: patent publication US8299020B2, “Antimicrobial peptides and methods of their use” (The Ohio State University Research Foundation, priority 2006, dated 2012)
Like-named read-outs stand apart in the source and are kept apart here.

How the values were obtained:
[1] = solubility in water; assay type: physicochemical; conditions: neutral water
[2] = system: gram-negative bacteria; assay: bioassay of activity against gram-negative bacteria; assay type: cell-based
Description: Antimicrobial activity determination. A qualitative and quantitative bioassay for antimicrobial potency was done using the spot-on-lawn method. An indicator lawn was prepared by pouring 10 ml soft agar (seeded with 200 μl overnight indicator culture) onto tryptose agar as a basal medium, in a petri dish. Escherichia coli K-12 and Lactobacillus plantarum ATCC 8014 were generally used as the gram-negative and gram-positive sensitive indicators, respectively, but other bacteria were tested to determine the OSY-DF antimicrobial spectrum (Table 1). For qualitative tests, aliquots (10 μl) of cell-free culture supernatant (pH 6.5) were spotted on indicator lawns, and the plates were incubated overnight for inhibition area observation. A clear inhibition area of ≧3 mm in diameter was recorded as positive. For the quantitative measurements, the cell-free culture supernatant was twofold serially diluted and dilutions were spotted onto the indicator lawn as just described. Antimicrobial activity was expressed in AU/ml; these values are the reciprocal of the highest dilution displaying a clear zone of inhibition that corresponds to 1 ml of the nondiluted supernatant.
Separation and purification by HPLC of the OSY-DF peptide. […] Elution was monitored at a wavelength of 220 nm, and fractions were collected manually for the antimicrobial activity bioassay. […]

[3] = system: Acinetobacter baumannii; conditions: background statement; cited from earlier work
[4] = system: Pseudomonas aeruginosa; conditions: background statement; cited from earlier work
[5] = system: gram-negative bacteria; conditions: background statement; cited from earlier work

## C=C1NC(=O)C2CSC(C)C(NC(=O)C3CSC(C)C4NC(=O)[C@H](CC(C)C)NC(=O)C(NC(=O)[C@H](CCCCN)NC(=O)C5CSCC(NC(=O)[C@@H](NC(=O)[C@H](CCCCN)NC(=O)[C@@H](NC(=O)/C(=C/C)NC(=O)/C(=C/C)NC(=O)[C@H](CCCCN)NC(=O)[C@@H](NC(=O)[C@@H](NC(=O)C(=C)NC(=O)[C@H](C)NC(C)=O)[C@@H](C)CC)[C@@H](C)CC)[C@@H](C)CC)C(C)C)C(=O)N[C@@H](CCCCN)C(=O)N[C@@H](C)C(=O)N[C@@H](C(C)C)C(=O)N5)C(C)SCC(NC4=O)C(=O)N[C@@H]([C@@H](C)CC)C(=O)N3)C(=O)NCC(=O)NC(CSCC(C(=O)N[C@@H](CCCCN)C(=O)O)NC(=O)[C@H](CC(N)=O)NC1=O)C(=O)N2 (stereo partly drawn) [Paenibacillin, (CH3CO-^1A)-Dha-I-I-K-Dhb-Dhb-I-K-V-A-K-A-V-A-K-Abu-L-Abu-A-I-A-Abu-G-A-A-Dha-N-A-K^30]
[1]
  solubility in water: easy to dissolve
[1]; listed as OSY-DF peptide
  solubility in water: readily soluble

## polymyxin E1
[2]
  activity against gram-negative bacteria: anti-gram-negative activity
[3]
  activity against Acinetobacter baumannii: active
[4]
  activity against Pseudomonas aeruginosa: active
[5]
  activity against gram-negative bacteria: specifically active
